One test relates to Eimeria tenella. In words: Antiprotozoal activity (functional assay) using […] bovine kidney (MDBK) host cells infected with Eimeria tenella.
For a further test, the system named is Plasmodium falciparum. Description: In vitro antiprotozoal activity against Plasmodium falciparum 3D7 infected erythrocytes […]. It is filed as functional, organism-based.
Another test deals with HeLa. Description: Concentration for 50% inhibition of cell growth of human HeLa cells or foreskin fibroblasts in In vitro anti-proliferative functional assay.
Another test has as its target Histone deacetylase. Description: Inhibitory activity against histone deacetylase (HDAC) derived from partially purified extracts of mammalian HeLa cells. On the set-up: species or system Homo sapiens.

In brackets after ≈: the same amount, converted by molar mass.

With `CCC(=O)CCCCC[C@@H]1NC(=O)[C@H]2CCCCN2CC(=O)[C@H]([C@@H](C)CC)/N=C(\S)[C@H](Cc2cn(OC)c3ccccc23)NC1=O`, inhibition of growth against Eimeria tenella (MIC) required 0.125 µg/mL (≈ 0.191 µM). Moreover, the IC50 – broadly, the concentration that inhibits the measured activity by half – in the test on Plasmodium falciparum amounted to 0.1 µg/mL (≈ 0.153 µM); against Histone deacetylase it was 85 nM. For the same compound, the AP50 in the test on HeLa was determined as 1000 ng/mL.

These data come from ChEMBL document CHEMBL1133987, “Broad spectrum antiprotozoal agents that inhibit histone deacetylase: structure-activity relationships of apicidin. Part 1” (Bioorg Med Chem Lett, 2001).
